Reference: patent US20090088432A1, “Thiazolinones and Oxazolinones and their Use as Ptp1b Inhibitors” (priority 2005, published 2009)

biological target: T1, Recombinant human Protein-tyrosine phosphatase1B (PTP1B) (Homo sapiens, UniProt P18031); experiment: PTP1B enzyme inhibition assay (pNpp substrate); format: biochemical; conditions: inhibition of recombinant human PTP1B, pNpp 5 mM, 30 mins at 25° C; inhibitor concentration not given
T1 construct: Recombinant human Protein-tyrosine phosphatase1B (PTP1B) (amino acid 1-322 Biomol, USA); purchased Biomol, USA
T1 sequence (P18031 1-322): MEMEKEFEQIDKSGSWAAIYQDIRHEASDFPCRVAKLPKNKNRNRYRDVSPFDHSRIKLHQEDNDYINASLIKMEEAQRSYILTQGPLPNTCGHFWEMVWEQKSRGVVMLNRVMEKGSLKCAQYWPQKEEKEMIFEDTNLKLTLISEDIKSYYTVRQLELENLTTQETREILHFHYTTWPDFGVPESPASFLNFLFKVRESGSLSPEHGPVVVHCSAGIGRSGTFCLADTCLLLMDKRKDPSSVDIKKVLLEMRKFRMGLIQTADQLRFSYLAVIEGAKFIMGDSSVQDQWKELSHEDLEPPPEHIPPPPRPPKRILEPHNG
Description: Protein tyrosine phosphatase 1B (PTP1B) is an intracellular enzyme which functions by removing the phosphate groups from phosphorylated tyrosine residues of cellular proteins. PTP1B has been implicated as a negative regulator of insulin action and therefore is of therapeutic interest. The ability of the test compounds to inhibit the activity of PTP1B is determined using an enzyme inhibition assay.
The assay is performed using two independent substrates of PTP1B namely, p-nitrophenyl phosphate (pNpp) and the phosphorylated Epidermal growth factor receptor peptide (EGFR).
In the assay performed with pNpp, the action of PTP1B results in the release of p-nitrophenol, which is yellow in colour and can be measured at 410 nm. In the case of the assay using EGFR, action of PTP1B results in the release of free phosphate group. This is trapped using a reagent containing ammonium molybdate and malachite green resulting in a colored complex whose absorbance can be measured at 620 nm.
1× Assay buffer 50 mM HEPES (pH 7.4) • 1 mM EDTA • 1 mM DTT • 0.05% Igepal® CA-630
Dilute recombinant Human PTP1B 1:150 in 1× Assay buffer for 10× stock,
Prepare 10× stock of pNpp (50 mM) in 1× Assay buffer
Prepare 100× stock in 100% DMSO, dilute 1:10 with 1× Assay buffer to get 10× stock in 10% DMSO.
PTP1B inhibition assay was performed using recombinant human PTP1B. PTP1B (0.016 μg/well) was incubated in a buffer containing 50 mM HEPES, 1 mM DTT, 1 mM EDTA and 0.05% Igepal® CA-630 with or without inhibitor (10× stock, final DMSO concentration is 1%) for 30 mins at 25° C. This was followed by addition of p-Nitrophenyl phosphate (pNpp) substrate (5 mM). The final volume of the reaction mixture is 50 μL and experiment was done in 96 well half area plate. The incubation was continued for 30 mins at 25° C. The conversion of pNpp to p-Nitrophenol (pNp) was measured at 410 nm in Spectramaxplus Spectrophotometer (Molecular Devices, USA).

Row | SMILES | Activity Score
1 | COc1ccc2cc(C=C3SC(Nc4ccc(CC(=O)O)cc4)=NC3=O)ccc2c1 [Compound 7, {4-[5-(6-Methoxy-naphthalen-2-ylmethylene)-4-oxo-4,5-dihydro-thiazol-2-ylamino]-phenyl}-acetic acid] | (+++) (+++ = >50% inhibition)
2 | O=C(O)CCc1ccc(NC2=NC(=O)C(=Cc3cc4ccccc4cc3OCc3ccccc3)S2)cc1 [Compound 49, 3-{4-[5-(3-Benzyloxy-naphthalen-2-ylmethylene)-4-oxo-4,5-dihydro-thiazol-2-ylamino]-phenyl}-propionic acid] | (++) (++ = 20-50% inhibition)
3 | O=C(O)Cc1ccc(NC2=NC(=O)C(=Cc3cccc(N4C(=O)c5ccccc5C4=O)c3)S2)cc1 [Compound 50, (4-{5-[3-(1,3-Dioxo-1,3-dihydro-isoindol-2-yl)-benzylidene]-4-oxo-4,5-dihydro-thiazol-2-ylamino}-phenyl)-acetic acid] | (+++) (+++ = >50% inhibition)
4 | O=C(O)Cc1ccc(NC2=NC(=O)C(=Cc3c[nH]c4ccccc34)S2)cc1 [Compound 8, {4-[5-(1H-Indol-3-ylmethylene)-4-oxo-4,5-dihydro-thiazol-2-ylamino]-phenyl}-acetic acid] | (+) (+ = 10-20% inhibition)
5 | O=C(O)Cc1ccc(NC2=NC(=O)C(=Cc3ccc(-c4ccccc4)cc3)S2)cc1 [Compound 9, [4-(5-Biphenyl-4-ylmethylene-4-oxo-4,5-dihydro-thiazol-2-ylamino)-phenyl]-acetic acid] | (+++) (+++ = >50% inhibition)
6 | O=C(O)Cc1ccc(NC2=NC(=O)C(=Cc3cccn3-c3ccc(Br)cc3)S2)cc1 [Compound 60, (4-{5-[1-(4-Bromo-phenyl)-1H-pyrrol-2-ylmethylene]-4-oxo-4,5-dihydro-thiazol-2-ylamino}-phenyl)-acetic acid] | (++) (++ = 20-50% inhibition)
7 | O=C(O)Cc1ccc(NC2=NC(=O)C(=Cc3ccc(-n4cnnn4)cc3)S2)cc1 [Compound 45, {4-[4-Oxo-5-(4-tetrazol-1-yl-benzylidene)-4,5-dihydro-thiazol-2-ylamino]-phenyl}-acetic acid] | (+++) (+++ = >50% inhibition)
8 | O=C(O)Cc1ccc(NC2=NC(=O)C(=Cc3ccc4ccccc4c3)S2)cc1 [Compound 1, [4-(5-Naphthalen-2-ylmethylene-4-oxo-4,5-dihydro-thiazol-2-ylamino)-phenyl]-acetic acid] | (+++) (+++ = >50% inhibition)
9 | O=C(O)Cc1cccc(NC2=NC(=O)C(=Cc3cc4ccccc4cc3OCc3ccccc3)S2)c1 [Compound 14, {3-[5-(3-Benzyloxy-naphthalen-2-ylmethylene)-4-oxo-4,5-dihydro-thiazol-2-ylamino]-phenyl}-acetic acid] | (++) (++ = 20-50% inhibition)

Other lines, results leading:

Row | Activity Score | SMILES
10 | (+) (+ = 10-20% inhibition) | O=C(O)Cc1ccc(NC2=NC(=O)C(=Cc3cccc(-n4cncn4)c3)S2)cc1 [Compound 87, {4-[4-Oxo-5-(3-[1,2,4]triazol-1-yl-benzylidene)-4,5-dihydro-thiazol-2-ylamino]-phenyl}-acetic acid]
11 | (+) (+ = 10-20% inhibition) | CC(=C1SC(Nc2ccc(CC(=O)O)cc2)=NC1=O)c1cccc(-n2cccc2)c1 [Compound 61, (4-{4-Oxo-5-[1-(3-pyrrol-1-yl-phenyl)-ethylidene]-4,5-dihydro-thiazol-2-ylamino}-phenyl)-acetic acid]
12 | (++) (++ = 20-50% inhibition) | O=C(O)Cc1ccc(NC2=NC(=O)C(=Cc3cc4ccccc4cc3OCC3CCCO3)S2)cc1 (stereo not shown) [Compound 142, (4-{4-Oxo-5-[3-(tetrahydro-furan-2-ylmethoxy)-naphthalen-2-ylmethylene]-4,5-dihydro-thiazol-2-ylamino}-phenyl)-acetic acid]
13 | (+) (+ = 10-20% inhibition) | O=C(O)Cc1ccc(NC2=NC(=O)C(=Cc3ccc(C(F)(F)F)cc3)S2)cc1 [Compound 72, {4-[4-Oxo-5-(4-trifluoro methyl-benzylidene)-4,5-dihydro-thiazol-2-ylamino]-phenyl}-acetic acid]
